Starred links: 1 amine or outer side, 2 acyl side, 3 side chain; linkers in the order of their positions; H or OH if unused. Positions of bridges follow the written chain, without caps; N, C: chain ends. Residues, ends and D or L forms follow the SMILES beside them. Chains are numbered I, II in the order given. X2 = C[C@@H]1Cc2ccc3ccccc3c2C1=C1c2cc(C#CCCn3cc(C(=O)[*:1])nn3)ccc2Sc2ccc(C#CCCn3cc(C(=O)[*:2])nn3)cc21
What was measured:
[1] = tested on: CHO cells; test: UV-activated nanomechanical necrosis, live cell confocal microscopy, CHO; type: cell-based, Chinese hamster; conditions: 355 nm UV; for % acceleration for full necrosis: versus UV upon blank cells
Procedure: (§1) Following the synthetic bilipid vesicle experiments, nanomechanical action upon live cells was studied using confocal microscopy aided by a super-resolution technique called Phase Modulation Nanoscopy. Applicants used two experimental methods. In the first method (Method A), the molecular motors were loaded into the cell media and the imaging was initiated within 5 minutes to 24 hours. In the second method, (Method B), the molecular motors were loaded into the cell media, incubated for 30 minutes to 24 hours, and then washed three times with fresh molecular motor-free media before imaging. […]
(§2) Microscopy cells were seeded in untreated iBibi 100 μL live cell channels and allowed to grow to 40% to 60% confluence, at 37° C. in 5% CO2. At this stage, the medium was replaced and cells were treated with the studied nanomachines and co-stains as appropriate, with 0.1% DMSO (as detailed above) present in the final imaging medium. For live cell imaging, DMEM/F12 media (10% FBS) lacking phenol red was used from this point onwards. Following incubation, where Method B was used, the channels were washed with live cell imaging media and imaged using a purpose build incubator housing the microscope maintaining 37° C., 5% CO2 and 10% humidity.
(§3) All live cell imaging experiments used either NIH 3T3 mouse skin fibroblast cells, PC-3 cells, a grade 3 human prostate adenocarcinoma, or Chinese hamster ovary cells (CHO). These are all well-studied cell lines with discrete morphological compositions. Each molecular machine was used as a stock solution at 0.10 to 1.00 μM with total dimethyl sulfoxide (DMSO) concentrations not exceeding 0.1% in the final cell media in order to avoid unwanted cell membrane permeabilization, the DMSO being required for solubility of the organic nanomachines. All loading experiments are carried out in a light-suppressed manner and the possibility of induced or accelerated uptake due to interaction between the molecular motors and the applied co-stain has been eliminated using a series of individual and reversed loading experiments.
(§4) All experimental imaging parameters (i.e., laser beam size, confocal pinhole size, laser intensity, line scanning speed, scanning area (field of view, FOV), and line averaging sequences) were kept constant throughout the experiments. The accuracy and errors associated with the establishment of accelerated necrosis are determined based on one dual channel imaging sequence, which takes 15 seconds in total. This imaging sequence has been carefully established using untreated live cells.
(§5) Steady state fluorescence images were recorded using a PhMoNa enhanced Leica SP5 II LSCM equipped with a HCX PL APO 63×/1.40 NA LambdaBlue Oil immersion objective. As an initial control experiment to establish the UV-induced cell toxicity threshold, while mitigating voxel exposure and ensuring sufficient laser dwell time, an imaging sequence has been established to monitor cell morphological and physiological changes as a function of time. All experiments used cell-line-determined culture medium containing 0.1% DMSO.
(§6) The applied 100 Hz detection sequence was based on a bidirectional dual-channel continuous scanning method where a minimalistic non-damaging visible laser light (458 nm, 0.2 mW) is used in conjunction with the above detailed UV exposure. This is set as a 2 line/scan accumulation parallel acquisition sequence that is recorded as a function of time. Studied channels correspond to transmission images and UV-induced mitochondrial auto-fluorescence detected at 460 to 550 nm. Applicants further confirmed that the effectiveness of monitoring the UV-activated nanomechanical action on live cells using a conventional CW mercury-arc excitation source equipped with an epi-fluorescence setup consisting of a Zeiss Axiovert 200M inverted microscope, as discussed in FIGS. 18A-C. […]

[2] = tested on: NIH 3T3 cells; test: UV-activated nanomechanical necrosis, live cell confocal microscopy, NIH 3T3; type: cell-based, mouse; conditions: for Time of Full Necrosis / Time of Initial Necrosis / % acceleration for full necrosis: 355 nm UV; for % acceleration for full necrosis: versus UV upon blank cells
Procedure: as §1, §2, §3, §4, §5, §6

[3] = tested on: PC-3 cells; test: Two-photon near-infra red activation, PI dye entry, PC-3; type: cell-based, human; conditions: PC-3, 1 μM, PI 200 nM
Procedure: Two-photon microscopy studies of NIH 3T3 cells were executed on a Nikon E600 upright confocal microscope coupled to a tuneable (710-950 nm Coherent MaiTai) multiphoton source operating at (20%) 240 mW power using a 166 lps scan speed and 128×128 pixel frame resolution for MP-illumination. Images (512×512 pixel, 166 lps) were recorded using a 543 nm (1 mW HeNe) laser combined with a 560 nm long-pass filter to record PI (200 nM) fluorescence and follow the onset of induced necrosis.
Two photon live cell microscopy studies were also executed on a Nikon E600 upright confocal microscope coupled to a tuneable (710-950 nm Coherent MaiTai) multiphoton source operating at (19.8%) 240 mW power at 720 nm using 166 lines/sec scan speed and 128×128 pixel frame resolution for MP-illumination. An oil immersion Nikon IR objective (×60/1.4 NA) was used. Images (512×512 pixel, 166 l/s) were recorded using a 543 nm (1 mW HeNe) laser combined with a 570 nm long-pass filter to record PI dyes (200 nM). Fluorescence was measured as 2 frame averaged images in order to follow the onset of induced necrosis. Necrosis times have been assigned to detectable PI signals in the nucleolus.

[4] = tested on: PC-3 cells; test: UV-activated nanomechanical necrosis, live cell confocal microscopy, PC-3; type: cell-based, human; conditions: for Time of Full Necrosis / Time of Initial Necrosis / % acceleration for full necrosis: 355 nm UV; for % acceleration for full necrosis: versus UV upon blank cells
Procedure: Following the synthetic bilipid vesicle experiments, nanomechanical action upon live cells was studied using confocal microscopy aided by a super-resolution technique called Phase Modulation Nanoscopy. Applicants used two experimental methods. In the first method (Method A), the molecular motors were loaded into the cell media and the imaging was initiated within 5 minutes to 24 hours. In the second method, (Method B), the molecular motors were loaded into the cell media, incubated for 30 minutes to 24 hours, and then washed three times with fresh molecular motor-free media before imaging.
Next, Applicants used the smaller nanomachine, 3. Initial control experiments (blank) were performed without nanomachines being present. UV-induced (355 nm) PC-3 necrosis is not initiated until approximately scan 20 (corresponding to 300 second continuous scanning UV exposure, 400 nJ/voxel total dwell time), characterized by massive disruption and rupture of the mitochondrial network and subsequent well-pronounced auto-fluorescent signal detectable in the nucleoli and nucleus wall (FIG. 7A). This is observable by the nucleoli membrane permeabilization and DNA damage at the onset of necrosis. The UV-induced necrosis reaches final stages at approximately scan 40 (corresponding to 600 seconds) that is consistent with characteristic extracellular membrane rupture and homogenous cytosolic auto-fluorescence, indicating loss of cellular organelle boundaries.
as §2, §3, §4
as §5, with “DMSO. […]” for “DMSO.”

[5] = NIH 3T3, Method B (washed three times)
[6] = PC-3, Method B (washed three times)

CC(C)[C@H](NC(=O)[C@H](CCCNC(=N)N)NC(=O)[C@@H](NC(=O)[C@H](CC(N)=O)NC(=O)[C@H](CO)NC(=O)c1cn(CCC#Cc2ccc3c(c2)C(=C2c4c(ccc5ccccc45)C[C@H]2C)c2cc(C#CCCn4cc(C(=O)N[C@@H](CO)C(=O)N[C@@H](CC(N)=O)C(=O)N[C@H](C(=O)N[C@@H](CCCNC(=N)N)C(=O)N[C@H](C(=O)N[C@@H](C)C(=O)N5CCC[C@H]5C(=O)O)C(C)C)[C@@H](C)O)nn4)ccc2S3)nn1)[C@@H](C)O)C(=O)N[C@@H](C)C(=O)N1CCC[C@H]1C(=O)O [Compound 9] (I: SNTRVAP-OH / II: SNTRVAP-OH; linker I:N-II:N via X2)
Time of Full Necrosis ([1]; Method A (no washing)): 585 s | Time of Initial Necrosis ([1]; Method A (no washing)): 300 s | % acceleration for full necrosis ([1]; Method A): 2.5% | Time of Full Necrosis ([1]; Method B (washed three times)): 570 s | Time of Initial Necrosis ([1]; Method B (washed three times)): 285 s | % acceleration for full necrosis ([1]; Method B): 5% | Time of Full Necrosis ([2]; NIH 3T3, Method A (no washing)): 570 s | Time of Initial Necrosis ([2]; NIH 3T3, Method A (no washing)): 300 s | % acceleration for full necrosis ([2]; NIH 3T3, Method A): 5% | Time of Full Necrosis [2, 5]: 600 s | Time of Initial Necrosis [2, 5]: 300 s | % acceleration for full necrosis ([2]; NIH 3T3, Method B): 0% | UV-accelerated nanomechanical necrosis after 24 hours incubation (in words) ([2]; NIH 3T3, incubated 24 hours): no change in rates | PI dye entry upon two-photon near-infra red illumination (in words) [3]: resulting in Propidium Iodide (PI) dyes entering | selectivity for targeted PC-3 cells over non-targeted control cells (in words) ([4]; NIH 3T3 and CHO as non-targeted controls): selectively target the PC-3 cell line over CHO cells | Time of Full Necrosis ([4]; PC-3, Method A (no washing)): 360 s | Time of Initial Necrosis ([4]; PC-3, Method A (no washing)): 150 s | % acceleration for full necrosis ([4]; PC-3, Method A): 40% | Time of Full Necrosis [4, 6]: 390 s | Time of Initial Necrosis [4, 6]: 180 s | % acceleration for full necrosis ([4]; PC-3, Method B): 35% | accelerated necrosis upon UV-activation after washing and further 24 hours in rotor free media ([4]; PC-3, incubated 30 minutes to 4 hours, washed three times, 24 hours rotor free media): 25%

From patent US11565003B2, “Mechanical opening of lipid bilayers by molecular nanomachines” (William Marsh Rice University, priority 2016, dated 2023)
